Assay [1] can be described thus: Induction of ROS generation in PBS at 10 uM incubated for 10 mins under 1.0 MHz, 1.2W/cm2 ultrasound treatment by DCFH staining based fluorescence assay. Format: functional.
In another assay the test system is HCT-116. Description: Induction of apoptosis in MTAP knocked out human HCT-116 cells at 0.1 uM preincubated for 24 hrs followed by sonication for 4 mins by annexin V-FITC/PI staining based flow cytometry analysis relative to control. Format: functional, cell-based. The note with it: time 1444.0 min. On the technique in general: In flow cytometry, cells or beads pass a laser one at a time.

This is an account of results in ChEMBL document CHEMBL5532680, “Identification of a Sonically Activated Degrader of Methionine Adenosyltransferase 2A by an in Silico Approach Assisted with the Hole-Electron Analysis” (J Med Chem, 2024).

SMILES strings stand for the structures. Activity calls are given as the source filed them. The calls are words filed in the database; no cut-off is given here.

On to `CCOc1ncc2cc(-c3ccc4nc5n(c4c3)CCN(C(C)=O)C5)c(=O)n(-c3ccc(OC(F)F)cc3)c2n1`, for which the result in assay [1] was inactive. On the same count and under the same terms, the result for `CCOc1ncc2cc(-c3ccc4c(c3)OCC3(CCN(C)CC3)O4)c(=O)n(-c3ccc(OC(F)F)cc3)c2n1` reads “Active”; that for `CCOc1ncc2cc(-c3ccc4c(c3)C3(CC3)CO4)c(=O)n(-c3ccc(OC(F)F)cc3)c2n1`, “Active”. Take `CCOc1ncc2cc(-c3ccc4nc5n(c4c3)CCN(C)C5)c(=O)n(-c3ccc(OC(F)F)cc3)c2n1`: the result in assay [1] was inactive. The outcome with HCT-116 was Active.
